Experimental data: article PMC7405733, “Pharmacokinetics of micafungin in patients treated with extracorporeal membrane oxygenation: an observational prospective study” (Revista Brasileira de Terapia Intensiva, 2020)
Values after ≈ are worked out from the molar mass of the structure shown. Read-outs that look alike come from different tables or passages of the source. *1 amine or outer side, *2 acyl side, *3 side chain or, on linkers, in order; H or OH if unused. Where a SMILES comes first, the peptide text is derived from it. Bridges are numbered along the chain shown (N, C = ends). [ ]: non-standard residue; d: D form. The star is where a group is joined. hTyr(3S-OH,4S-OH,3'-OSO3H) = N[C@H](C(=O)O)[C@H](O)[C@@H](O)c1ccc(O)c(OS(=O)(=O)O)c1; Orn(4R-OH,5R-OH) = O=C([C@H](C[C@@H](O)[C@@H](O)N[*:3])N[*:1])[*:2]; Pro(3S-OH,4S-Me) = C[C@H]1CN[C@H](C(=O)O)[C@H]1O; X1 = CCCCCOc1ccc(-c2cc(-c3ccc(C(=O)*)cc3)no2)cc1; Gln(3R-OH) = NC(=O)C[C@@H](O)[C@H](N)C(=O)O; Hyp = O=C(O)[C@@H]1C[C@@H](O)CN1

What was measured:
[1] = Micafungin plasma pharmacokinetics in adult patients treated with ECMO (samples before and after the oxygenation membrane); assay type: in vivo, human; details: for clearance / Vd / Cmax / AUC: human
Protocol: (§1) We conducted an observational, prospective, noninterventional and nondrug-linked study of the PKs and safety of micafungin in adult patients treated with ECMO in two Spanish hospitals: the intensive care unit (ICU) of the Hospital Universitario Marqués de Valdecilla, Santander, and the Anaesthesiology and Reanimation Department of the Hospital Universitario La Fe, Valencia, Spain. Prophylactic micafungin was administered in all patients. The study period was from January 2015 until April 2016. The PK analysis was performed in the Hospital del Mar, Barcelona, Spain. The trial was authorized by the corresponding Ethics Committees (CEIC Approval Number 17/2014), and Informed Consent of all the patients or their legal representatives was obtained.
Micafungin was given at a dose of 100mg diluted in 100ml of 0.9% saline in a 60-minute infusion always protected from light to prevent degradation. Five mL blood samples were taken, protected from light, on days 1 and 4 of the treatment with micafungin. The samples were taken through an access point before and after the oxygenation membrane (input and output, respectively). The extraction times for the calculation of complete PK curves were as follows: before the administration of the drug (trough or zero time); immediately after intravenous infusion (1-hour peak or end-of-infusion peak); and 3, 5, 8, 18 and 24 hours after the beginning of the infusion. Samples were centrifuged at a speed of 1,000g for ten minutes at 4 °C. The supernatant plasma was aliquoted into volumes of 150µl that were frozen at -80 °C until they were to be analyzed. The measurement of the total micafungin concentration (free plus protein-bound fractions) was performed by means of a high-performance liquid chromatography technique.
The following PK parameters were calculated: area under the curve (AUC), CL, Vd and plasma half-life time (t/2) with a noncompartmental PK data analysis using a nonparametric method: the Mann-Whitney test and the Wilcoxon signed-rank test (paired test, in consecutive days). For precision analysis, confidence intervals were calculated by bootstrapping with 1,000 repetitions using the method […] (BCa).
The calculation of the differences in the concentration of micafungin at the input (Cin) and output (Cout) of the oxygenator membrane allowed us to calculate the oxygenator’s degree of extraction. It should be remembered that there may be losses of micafungin in tubes and cannula and in the centrifugal pump.
Only continuous epidemiological and clinical data are presented as the mean and standard deviation (SD), and categorical data are presented as absolute numbers because of the small sample size. The rest of the parameters, including Cmin and Cmax, are presented as medians.

candidemia = test: Candidemia in patients on ECMO receiving prophylactic micafungin; assay type: in vivo, human; details: prophylactic micafungin 100mg, 12 adult ECMO patients
Protocol: as §1

[2] = set-up: method as in PMID 25947367; details: daily dose of 100mg, cited from earlier work
Candida albicans = tested on: Candida albicans; set-up: method as in PMID 24153129, PMID 21300835; details: published for Candida albicans; cited from earlier work
[3] = ECMO patients vs non-ECMO patients; hemodialysis was used in 4 patients; cited from earlier work
Text: Adsorption by the hemoﬁlter appears to be the most likely explanation when this is in line with an ECMO system. In an “ex vivo” study, the recovery of micafungin was 91% when the in-line hemofilter was removed.

SMILES: CCCCCOc1ccc(-c2cc(-c3ccc(C(=O)N[C@H]4C[C@@H](O)[C@@H](O)NC(=O)[C@@H]5[C@@H](O)[C@@H](C)CN5C(=O)[C@H]([C@H](O)CC(N)=O)NC(=O)[C@H]([C@H](O)[C@@H](O)c5ccc(O)c(OS(=O)(=O)O)c5)NC(=O)[C@@H]5C[C@@H](O)CN5C(=O)[C@H]([C@@H](C)O)NC4=O)cc3)no2)cc1 [micafungin] (X1-[Orn(4R-OH,5R-OH)]T[Hyp][hTyr(3S-OH,4S-OH,3'-OSO3H)][Gln(3R-OH)][Pro(3S-OH,4S-Me)]; lactam 1-C)
- Cmin out ([1]; Table 2, day 1, after membrane, 100mg iv, ECMO patients, plasma HPLC, median): 1410 ng/mL
- CL in ([1]; Table 2, day 1, before membrane, 100mg iv, ECMO patients, noncompartmental, median): 1.07 L/h
- Cmin in ([1]; Table 2, day 1, before membrane, 100mg iv, ECMO patients, plasma HPLC, median): 1410 ng/mL
- Cmin out ([1]; Table 2, day 4, after membrane, 100mg iv, ECMO patients, plasma HPLC, median): 1750 ng/mL
- Cmin in ([1]; Table 2, day 4, before membrane, 100mg iv, ECMO patients, plasma HPLC, median): 1800 ng/mL
- AUCin on day one ([1]; adult ECMO patients, 100mg 60-minute iv infusion, day 1, sample before the membrane, plasma total concentration by HPLC, noncompartmental, 95%CI 52.8 - 73.4, 10 patients): 62100 ng·h/mL
- AKI AUCout ([1]; day 1, ECMO patients with acute kidney injury, after membrane, 100mg iv, p = 0.71): 69.3 p = 0.71
- Hepatic failure AUCout ([1]; day 1, ECMO patients with hepatic failure, after membrane, 100mg iv, p = 0.91): 61.6 p = 0.91
- AKI AUCout ([1]; day 4, ECMO patients with acute kidney injury, after membrane, 100mg iv, p = 0.88): 106.7 p = 0.88
- Hepatic failure AUCout ([1]; day 4, ECMO patients with hepatic failure, after membrane, 100mg iv, p = 0.68): 85.2 p = 0.68
- concentration difference between samples before the membrane (C in) and after the membrane (C out) ([1]; first day of treatment, 100mg iv, ECMO patients, figure 1A): did not show any concentration difference
- concentration difference between samples before the membrane (Cin) and after the membrane (Cout) ([1]; fourth day of treatment, 100mg iv, ECMO patients, figure 1B): did not show any concentration difference
- clearance ([1]; plasma, iv, 100 mg, Table 2, day 1, after membrane, 100mg iv, ECMO patients, noncompartmental, median, read-out: CL out (converted)): 16.5 mL/min
- Vd ([1]; plasma, iv, 100 mg, Table 2, day 1, after membrane, 100mg iv, ECMO patients, noncompartmental, median, read-out: Vd out): 27.2 L
- Cmax ([1]; plasma, iv, 100 mg, Table 2, day 1, after membrane, 100mg iv, ECMO patients, plasma HPLC, median, read-out: Cmax out): 4950 ng/mL
- AUC ([1]; plasma, iv, 100 mg, Table 2, day 1, after membrane, 100mg iv, ECMO patients, plasma HPLC, noncompartmental, median, read-out: AUC out): 54100 ng·h/mL
- Vd ([1]; plasma, iv, 100 mg, Table 2, day 1, before membrane, 100mg iv, ECMO patients, noncompartmental, median, read-out: Vd in): 28.6 L
- Cmax ([1]; plasma, iv, 100 mg, Table 2, day 1, before membrane, 100mg iv, ECMO patients, plasma HPLC, median, read-out: Cmax in): 5850 ng/mL
- clearance ([1]; plasma, iv, 100 mg, Table 2, day 4, after membrane, 100mg iv, ECMO patients, noncompartmental, median, read-out: CL out (converted)): 12.8 mL/min
- Vd ([1]; plasma, iv, 100 mg, Table 2, day 4, after membrane, 100mg iv, ECMO patients, noncompartmental, median, read-out: Vd out): 18.1 L
- Cmax ([1]; plasma, iv, 100 mg, Table 2, day 4, after membrane, 100mg iv, ECMO patients, plasma HPLC, median, read-out: Cmax out): 6750 ng/mL
- AUC ([1]; plasma, iv, 100 mg, Table 2, day 4, after membrane, 100mg iv, ECMO patients, plasma HPLC, noncompartmental, median, read-out: AUC out): 81000 ng·h/mL
- clearance ([1]; plasma, iv, 100 mg, Table 2, day 4, before membrane, 100mg iv, ECMO patients, noncompartmental, median, read-out: CL in (converted)): 11.8 mL/min
- Vd ([1]; plasma, iv, 100 mg, Table 2, day 4, before membrane, 100mg iv, ECMO patients, noncompartmental, median, read-out: Vd in): 16.1 L
- Cmax ([1]; plasma, iv, 100 mg, Table 2, day 4, before membrane, 100mg iv, ECMO patients, plasma HPLC, median, read-out: Cmax in): 12200 ng/mL
- AUC ([1]; plasma, iv, 100 mg, Table 2, day 4, before membrane, 100mg iv, ECMO patients, plasma HPLC, noncompartmental, median, read-out: AUC in): 88800 ng·h/mL
- AUC ([1]; plasma, iv, 100 mg, day 1, ECMO patients without acute kidney injury, after membrane, 100mg iv, read-out: No AKI AUCout): 61900 ng·h/mL
- AUC ([1]; plasma, iv, 100 mg, day 1, ECMO patients without hepatic failure, after membrane, 100mg iv, read-out: No hepatic failure AUCout): 66100 ng·h/mL
- AUC ([1]; plasma, iv, 100 mg, day 4, ECMO patients without acute kidney injury, after membrane, 100mg iv, read-out: No AKI AUCout): 95100 ng·h/mL
- AUC ([1]; plasma, iv, 100 mg, day 4, ECMO patients without hepatic failure, after membrane, 100mg iv, read-out: No hepatic failure AUCout): 117000 ng·h/mL
- AUC ([1]; adult ECMO patients, 100mg 60-minute iv infusion, day 1, sample after the membrane, plasma HPLC, noncompartmental, 95%CI 52.4 - 76.7, 10 patients, read-out: AUCout on day one): 63400 ng·h/mL
- candidemia in patients on ECMO who received prophylactic micafungin (candidemia): No candidemia was observed
- AUC after a daily dose of 100mg in ICU patients ([2]; ICU patients (without ECMO)): 78.6 mg·h/L
- AUC after a daily dose of 100mg in healthy adults ([2]; healthy adults): 132.6 mg·h/L
- MIC90 (Candida albicans): 0.03 µg/mL (≈ 0.0236 µM)
- reduction in the AUC in the ECMO group versus non-ECMO control group [3]: 23%
